Columns and labels:
Type in all cases: in vivo
soybean (Glycine max) = assay: Test E pre-/postemergence: soybean; conditions: scale 0 to 100
Description: (§1) Seeds of plant species selected from corn (Zea mays), soybean (Glycine max), velvetleaf (Abutilon theophrasti), lambsquarters (Chenopodium album), poinsettia, wild (wild poinsettia, Euphorbia heterophylla), pigweed, palmer (palmer pigweed, Amaranthus palmeri), waterhemp (common waterhemp, Amaranthus rudis), smartweed (ladysthumb smartweed, Polygonum persicaria), surinam grass (Brachiaria decumbens), crabgrass, large (large crabgrass, Digitaria sanguinalis), crabgrass, Brazil (Brazilian crabgrass, Digitaria horizontalis), panicum, fall (fall panicum, Panicum dichotomiflorum), foxtail, giant (giant foxtail, Setaria faberii), foxtail, green (green foxtail, Setaria viridis), goosegrass (Eleusine indica), johnsongrass (Sorghum halepense), ragweed (common ragweed, Ambrosia elation), barnyardgrass (Echinochloa crus-galli), sandbur (southern sandbur, Cenchrus echinatus), arrowleaf sida (Sida rhombifolia), ryegrass, Italian (Italian ryegrass, Lolium multiflorum), dayflower, (VA) (Virginia dayflower, Commelina virginica), field bindweed (Convolvulus arvensis), cocklebur (common cocklebur, Xanthium strumarium), morningglory (Ipomoea coccinea), nightshade (eastern black nightshade, Solanum ptycanthum), kochia (Kochia scoparia), nutsedge, yellow (yellow nutsedge, Cyperus esculentus) and beggarticks (hairy beggarticks, Bidens pilosa) were planted into a silt loam soil and treated preemergence with test chemicals formulated in a non-phytotoxic solvent mixture which included a surfactant. At the same time, plants selected from these crop and weed species were planted in pots containing a growing medium comprising spaghnum peat moss, vermiculite, wetting agent and starter nutrients and treated with postemergence applications of some of the test chemicals formulated in the same manner. Plants ranged in height from 2 to 18 cm for postemergence treatments (1- to 4-leaf stage).
(§2) Treated plants and controls were maintained in a greenhouse for 14 to 21 days, after which time all species were compared to controls and visually evaluated. Plant response ratings, summarized in Table E, are based on a scale of 0 to 100 where 0 is no effect and 100 is complete control. A dash (-) response means no test result.

[1] = tested on: sandbur (southern sandbur, Cenchrus echinatus); assay: Test E pre-/postemergence: sandbur; conditions: scale 0 to 100
Description: as §1, §2

[2] = tested on: arrowleaf sida (Sida rhombifolia); assay: Test E pre-/postemergence: arrowleaf sida; conditions: scale 0 to 100
Description: as §1, §2

[3] = tested on: field bindweed (Convolvulus arvensis); assay: Test E pre-/postemergence: field bindweed; conditions: scale 0 to 100
Description: as §1, §2

[4] = tested on: nutsedge, yellow (yellow nutsedge, Cyperus esculentus); assay: Test E pre-/postemergence: nutsedge, yellow; conditions: Preemergence, scale 0 to 100
Description: as §1, §2

Oilseed Rape = assay: Test C preemergence: oilseed rape; conditions: 62 g ai/ha, scale of 0 to 100, 0 is no effect, 100 is complete control
Description: Seeds of plant species selected from blackgrass (Alopecurus myosuroides), bromegrass, downy (downy bromegrass, Bromus tectorum), foxtail, green (green foxtail, Setaria viridis), ryegrass, Italian (Italian ryegrass, Lolium multiflorum), winter wheat (Triticum aestivum), wild oat (Avena fatua), galium (catchweed bedstraw, Galium aparine), bermudagrass (Cynodon dactylon), surinam grass (Brachiaria decumbens), cocklebur (common cocklebur, Xanthium strumarium), corn (Zea mays), large crabgrass (Digitaria sanguinalis), woolly cupgrass (Eriochloa villosa), foxtail, giant (giant foxtail, Setaria faberii), goosegrass (Eleusine indica), johnsongrass (Sorghum halepense), kochia (Kochia scoparia), lambsquarters (Chenopodium album), morningglory (Ipomoea coccinea), nightshade (eastern black nightshade, Solanum ptycanthum), nutsedge, yellow (yellow nutsedge, Cyperus esculentus), pigweed (Amaranthus retroflexus), ragweed (common ragweed, Ambrosia elation), soybean (Glycine max), common (oilseed) sunflower (Helianthus annuus), Russian thistle (Salsola kali) and velvetleaf (Abutilon theophrasti) were planted into a blend of loam soil and sand and treated preemergence with test chemicals formulated in a non-phytotoxic solvent mixture which included a surfactant.
as §2, with “13” for “14”, “15” for “21”, “C,” for “E,”

[5] = tested on: poinsettia, wild (wild poinsettia, Euphorbia heterophylla); assay: Test F pre-/postemergence: poinsettia, wild; conditions: Preemergence
Description: (§3) Seeds of plant species selected from corn (Zea mays), soybean (Glycine max), velvetleaf (Abutilon theophrasti), lambsquarters (Chenopodium album), poinsettia, wild (wild poinsettia, Euphorbia heterophylla), pigweed, palmer (palmer pigweed, Amaranthus palmeri), waterhemp (common waterhemp, Amaranthus rudis), surinam grass (Brachiaria decumbens), crabgrass, Brazil (Brazilian crabgrass, Digitaria horizontalis), panicum, fall (fall panicum Panicum dichotomiflorum), crabgrass, large (large crabgrass, Digitaria sanguinalis), foxtail, giant (giant foxtail, Setaria faberii), foxtail, green (green foxtail Setaria viridis), goosegrass (Eleusine indica), ragweed (common ragweed, Ambrosia elatior), barnyardgrass (Echinochloa crus-galli), sandbur (southern sandbur, Cenchrus echinatus), arrowleaf sida (Sida rhombifolia), ryegrass, Italian (Italian ryegrass, Lolium multiflorum), dayflower, VA (Virginia (VA) dayflower, Commelina virginica), field bindweed (Convolvulus arvensis), cocklebur (common cocklebur, Xanthium strumarium), morningglory (Ipomoea coccinea), nightshade (eastern black nightshade, Solanum ptycanthum), kochia (Kochia scoparia), nutsedge, yellow (yellow nutsedge, Cyperus esculentus), johnsongrass (Sorghum halepense), smartweed (ladysthumb smartweed, Polygonum persicaria), and beggarticks (hairy beggarticks, Bidens pilosa), were planted into a silt loam soil and treated preemergence with test chemicals formulated in a non-phytotoxic solvent mixture which included a surfactant. At the same time, plants selected from these crop and weed species and also pigweed (Amaranthus retroflexus), waterhemp_RES1 (ALS/Triazine resistant common waterhemp, Amaranthus rudis) and waterhemp_RES2 (ALS/HPPD resistant common waterhemp, Amaranthus rudis) were planted in pots containing a planting medium comprising spaghnum peat moss, vermiculite, wetting agent and starter nutrients treated with postemergence applications of some of the test chemicals formulated in the same manner. Plants ranged in height from 2 to 18 cm for postemergence treatments (1- to 4-leaf stage).
as §2

[6] = tested on: nightshade (eastern black nightshade, Solanum ptycanthum); assay: Test F pre-/postemergence: nightshade; conditions: Preemergence
Description: as §3, §2

[7] = 16 g ai/ha, scale 0 to 100 (0 no effect, 100 complete control)
[8] = 31 g ai/ha, scale 0 to 100 (0 no effect, 100 complete control)

Q: For Cc1nn(-c2ccc(F)cc2)nc1Oc1ccnc(C(F)(F)F)c1 [Compound 129, 4-[[2-(4-fluorophenyl)-5-methyl-2H-1,2,3-triazol-4-yl]oxy]-2-(trifluoromethyl)pyridine], which “Plant response rating: Soybean” value (soybean (Glycine max); Preemergence, 8 g ai/ha) is on record?
A: Its value is 0.

Q: And the “Plant response rating: Soybean” value (soybean (Glycine max); Preemergence, 16 g ai/ha)?
A: The value was 15.

Q: And the “Plant response rating: Soybean” value (soybean (Glycine max); Preemergence, 31 g ai/ha)?
A: The value was 15.

Q: What about the “Plant response rating: Soybean” value (soybean (Glycine max); Preemergence, 62 g ai/ha) of the same molecule?
A: The value was 20.

Q: And the “Plant response rating: Soybean” value (soybean (Glycine max); Preemergence, 125 g ai/ha)?
A: Its value is 25.

Q: And the “Plant response rating: Sandbur” value ([1]; Preemergence, 8 g ai/ha)?
A: The value was 0.

Q: And the “Plant response rating: Sandbur” value ([1]; Preemergence, 16 g ai/ha)?
A: The value was 0.

Q: What about the “Plant response rating: Sandbur” value ([1]; Preemergence, 31 g ai/ha) of the same molecule?
A: The value was 20.

Q: What about the “Plant response rating: Sandbur” value ([1]; Preemergence, 62 g ai/ha) of the same molecule?
A: The value was 20.

Q: And the “Plant response rating: Sandbur” value ([1]; Preemergence, 125 g ai/ha)?
A: Its value is 50.

Q: What about the “Plant response rating: Arrowleaf Sida” value ([2]; Preemergence, 8 g ai/ha) of the same molecule?
A: Its value is 0.

Q: And the “Plant response rating: Arrowleaf Sida” value ([2]; Preemergence, 16 g ai/ha)?
A: Its value is 0.

Q: And the “Plant response rating: Arrowleaf Sida” value ([2]; Preemergence, 31 g ai/ha)?
A: The value was 0.

Q: What about the “Plant response rating: Arrowleaf Sida” value ([2]; Preemergence, 62 g ai/ha) of the same molecule?
A: Its value is 30.

Q: What about the “Plant response rating: Arrowleaf Sida” value ([2]; Preemergence, 125 g ai/ha) of the same molecule?
A: Its value is 30.

Q: What about the “Plant response rating: Field Bindweed” value ([3]; Preemergence, 8 g ai/ha) of the same molecule?
A: The value was 0.

Q: And the “Plant response rating: Field Bindweed” value ([3]; Preemergence, 16 g ai/ha)?
A: Its value is 0.

Q: And the “Plant response rating: Field Bindweed” value ([3]; Preemergence, 31 g ai/ha)?
A: The value was 0.

Q: And the “Plant response rating: Field Bindweed” value ([3]; Preemergence, 62 g ai/ha)?
A: Its value is 35.

Q: And the “Plant response rating: Field Bindweed” value ([3]; Preemergence, 125 g ai/ha)?
A: Its value is 35.

Q: And the “Plant response rating: Nutsedge, Yellow” value ([4]; 8 g ai/ha)?
A: The value was 0.

Q: And the “Plant response rating: Nutsedge, Yellow” value ([4]; 16 g ai/ha)?
A: Its value is 0.

Q: What about the “Plant response rating: Nutsedge, Yellow” value ([4]; 31 g ai/ha) of the same molecule?
A: Its value is 0.

Q: What about the “Plant response rating: Nutsedge, Yellow” value ([4]; 62 g ai/ha) of the same molecule?
A: Its value is 0.

Q: And the “Plant response rating: Nutsedge, Yellow” value ([4]; 125 g ai/ha)?
A: Its value is 20.

Q: Which “Plant response rating, Oilseed Rape” value (Oilseed Rape) does the source give for CCCc1nn(-c2ccc(C(F)(F)F)c(F)c2)nc1Oc1ccnc(C(F)(F)F)c1 [Compound 185] here?
A: Its value is 85.

Q: Which results are given for Cc1nn(-c2ccc(C(F)(F)F)cc2)nc1Cc1ccnc(C(F)(F)F)c1 [Compound 47, 4-[[5-methyl-2-[4-(trifluoromethyl)phenyl]-2H-1,2,3-triazol-4-yl]methyl]-2-(trifluoromethyl)pyridine]?
A: Plant response rating: Soybean (soybean (Glycine max); Postemergence, 250 g ai/ha): 75; Plant response rating: Soybean (soybean (Glycine max); Postemergence, 16 g ai/ha): 50; Plant response rating: Soybean (soybean (Glycine max); Postemergence, 31 g ai/ha): 50; Plant response rating: Soybean (soybean (Glycine max); Postemergence, 62 g ai/ha): 60; Plant response rating: Soybean (soybean (Glycine max); Postemergence, 125 g ai/ha): 60; Plant response rating: Soybean (soybean (Glycine max); Preemergence, 16 g ai/ha): 0; Plant response rating: Soybean (soybean (Glycine max); Preemergence, 31 g ai/ha): 40; Plant response rating: Soybean (soybean (Glycine max); Preemergence, 62 g ai/ha): 40; Plant response rating: Soybean (soybean (Glycine max); Preemergence, 125 g ai/ha): 40; Plant response rating: Soybean (soybean (Glycine max); Preemergence, 250 g ai/ha): 40; Plant response rating: Sandbur ([1]; Postemergence, 250 g ai/ha): 50; Plant response rating: Sandbur ([1]; Postemergence, 16 g ai/ha): 20; Plant response rating: Sandbur ([1]; Postemergence, 31 g ai/ha): 25; Plant response rating: Sandbur ([1]; Postemergence, 62 g ai/ha): 25; Plant response rating: Sandbur ([1]; Postemergence, 125 g ai/ha): 30; Plant response rating: Sandbur ([1]; Preemergence, 16 g ai/ha): 0; Plant response rating: Sandbur ([1]; Preemergence, 31 g ai/ha): 20; Plant response rating: Sandbur ([1]; Preemergence, 62 g ai/ha): 90; Plant response rating: Sandbur ([1]; Preemergence, 250 g ai/ha): 100; Plant response rating: Arrowleaf Sida ([2]; Postemergence, 250 g ai/ha): 85; Plant response rating: Arrowleaf Sida ([2]; Postemergence, 16 g ai/ha): 50; Plant response rating: Arrowleaf Sida ([2]; Postemergence, 31 g ai/ha): 60; Plant response rating: Arrowleaf Sida ([2]; Postemergence, 62 g ai/ha): 70; Plant response rating: Arrowleaf Sida ([2]; Postemergence, 125 g ai/ha): 80; Plant response rating: Arrowleaf Sida ([2]; Preemergence, 16 g ai/ha): 0; Plant response rating: Arrowleaf Sida ([2]; Preemergence, 31 g ai/ha): 20; Plant response rating: Arrowleaf Sida ([2]; Preemergence, 62 g ai/ha): 40; Plant response rating: Arrowleaf Sida ([2]; Preemergence, 125 g ai/ha): 60; Plant response rating: Arrowleaf Sida ([2]; Preemergence, 250 g ai/ha): 95; Plant response rating: Field Bindweed ([3]; Postemergence, 250 g ai/ha): 65; Plant response rating: Field Bindweed ([3]; Postemergence, 31 g ai/ha): 40; Plant response rating: Field Bindweed ([3]; Preemergence, 16 g ai/ha): 25; Plant response rating: Field Bindweed ([3]; Preemergence, 31 g ai/ha): 25; Plant response rating: Field Bindweed ([3]; Preemergence, 62 g ai/ha): 50; Plant response rating: Field Bindweed ([3]; Preemergence, 125 g ai/ha): 85; Plant response rating: Field Bindweed ([3]; Preemergence, 250 g ai/ha): 100; Plant response rating: Nutsedge, Yellow ([4]; 16 g ai/ha): 0; Plant response rating: Nutsedge, Yellow ([4]; 31 g ai/ha): 0; Plant response rating: Nutsedge, Yellow ([4]; 62 g ai/ha): 10; Plant response rating: Nutsedge, Yellow ([4]; 125 g ai/ha): 10; Plant response rating: Nutsedge, Yellow ([4]; 250 g ai/ha): 35

Q: Which results are given for Fc1ccc(-n2nc(Cc3ccnc(C(F)(F)F)c3)c(OCC(F)(F)F)n2)cc1 [Compound 142]?
A: Plant response rating, Poinsettia, Wild [5, 7]: 0; Plant response rating, Poinsettia, Wild [5, 8]: 10; Plant response rating, Poinsettia, Wild ([5]; 125 g ai/ha, scale 0 to 100): 70; Plant response rating, Nightshade [6, 7]: 65; Plant response rating, Nightshade [6, 8]: 80; Plant response rating, Nightshade ([6]; 125 g ai/ha, scale 0 to 100): 98
